# Measured values: patent US10167262B2, “Herbicidal substituted 3-arylpyrazoles” (FMC CORPORATION, priority 2014, dated 2019)
# Like-named read-outs stand apart in the source and are kept apart here.
# Legend:
# Format in all cases: in vivo
# [1] = system: galium (catchweed bedstraw, Galium aparine); test: Test C pre-/postemergence greenhouse test, plant response rating 0-100; details: Galium; for pest or weed control at 62 g/ha: 62 g ai/ha; for pest or weed control at 125 g/ha: 125 g ai/ha; for pest or weed control at 250 g/ha: 250 g ai/ha
# Procedure, shortened: (§1)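 Pre- and postemergence greenhouse test: seeds sown in loam/sand and treated preemergence, or plants at 2–18 cm (1- to 4-leaf stage) in peat-based medium sprayed postemergence, with compounds in non-phytotoxic solvent plus surfactant. Visual rating versus untreated controls after 13–15 days, 0 (no effect) to 100 (complete control).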
# [2] = system: Italian ryegrass (Lolium multiflorum); test: as above; details: Lolium multiflorum; for pest or weed control at 62 g/ha: 62 g ai/ha; for pest or weed control at 125 g/ha: 125 g ai/ha; for pest or weed control at 250 g/ha: 250 g ai/ha
# Procedure, shortened: as §1
# [3] = system: yellow nutsedge (Cyperus esculentus); test: as above; details: Cyperus; for pest or weed control at 62 g/ha: 62 g ai/ha; for pest or weed control at 125 g/ha: 125 g ai/ha; for pest or weed control at 250 g/ha: 250 g ai/ha
# Procedure, shortened: as §1
# [4] = system: ragweed (common ragweed, Ambrosia elatior); test: as above; details: Ambrosia artemisiifolia; for pest or weed control at 62 g/ha: 62 g ai/ha; for pest or weed control at 125 g/ha: 125 g ai/ha; for pest or weed control at 250 g/ha: 250 g ai/ha
# Procedure, shortened: as §1
# [5] = system: large (Lg) crabgrass (Digitaria sanguinalis); test: as above; details: Digitaria sanguinalis; for pest or weed control at 62 g/ha: 62 g ai/ha; for pest or weed control at 125 g/ha: 125 g ai/ha; for pest or weed control at 250 g/ha: 250 g ai/ha
# Procedure, shortened: as §1
# [6] = system: wheat (Triticum aestivum); test: Test A pre-/postemergence greenhouse herbicide test, visual injury rating 0-100; details: for plant injury at 500 g/ha: 500 g ai/ha
# Procedure, shortened: (§2)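 Seeds sown in loam soil–sand blend; preemergence directed soil spray and, simultaneously, postemergence spray on plants 2 to 10 cm tall at one- to two-leaf stage. Compounds formulated in non-phytotoxic solvent mixture with surfactant. Injury rated visually versus untreated controls after ~10 days in greenhouse.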
# corn (Zea mays) = test: as above; details: for plant injury at 500 g/ha: 500 g ai/ha
# Procedure, shortened: as §2
# [7] = system: barnyardgrass (Echinochloa crus-galli); test: as above; details: for pest or weed control at 500 g/ha: 500 g ai/ha
# Procedure, shortened: as §2
# [8] = system: velvetleaf (Abutilon theophrasti); test: as above; details: for pest or weed control at 500 g/ha: 500 g ai/ha
# Procedure, shortened: as §2
# [9] = system: pigweed (Amaranthus retroflexus); test: as above; details: for pest or weed control at 500 g/ha: 500 g ai/ha
# Procedure, shortened: as §2
# [10] = system: large (Lg) crabgrass (Digitaria sanguinalis); test: as above; details: for pest or weed control at 500 g/ha: 500 g ai/ha
# Procedure, shortened: as §2
# [11] = system: morningglory (Ipomoea spp.); test: as above; details: for pest or weed control at 500 g/ha: 500 g ai/ha
# Procedure, shortened: as §2
# [12] = system: giant foxtail (Setaria faberii); test: as above; details: for pest or weed control at 500 g/ha: 500 g ai/ha
# Procedure, shortened: as §2
# [13] = post-emergence, Postemergence, read-out: Plant response rating (0 to 100), Galium
# [14] = post-emergence, Postemergence, scale 0 to 100
# [15] = pre-emergence, Preemergence, read-out: Plant response rating, Galium
# [16] = pre-emergence, Preemergence, 500 g ai/ha
# [17] = post-emergence, Postemergence, read-out: Plant response rating (0 to 100), Ryegrass, Italian
# [18] = pre-emergence, Preemergence, read-out: Plant response rating, Ryegrass, Italian
# [19] = post-emergence, Postemergence, read-out: Plant response rating (0 to 100), Nutsedge, Yellow
# [20] = pre-emergence, Preemergence, read-out: Plant response rating, Nutsedge, Yellow
# [21] = post-emergence, Postemergence, read-out: Plant response rating (0 to 100), Ragweed
# [22] = pre-emergence, Preemergence, read-out: Plant response rating, Ragweed
# [23] = post-emergence, Postemergence, read-out: Plant response rating (0 to 100), Crabgrass, Large
# [24] = pre-emergence, Preemergence, read-out: Plant response rating, Crabgrass, Large
smiles,measurement,setting,value
"Cn1cc(C(=O)c2ccccc2)c(-c2cc(Cl)cc(Cl)c2)n1 [Compound 54, [3-(3,5-dichlorophenyl)-1-methyl-1H-pyrazol-4-yl]phenylmethanone]",pest or weed control at 31 g/ha,"[1]; post-emergence, Postemergence, 31 g ai/ha, read-out: Plant response rating (0 to 100), Galium",0%
same,pest or weed control at 62 g/ha,[1]; [13],0%
same,pest or weed control at 125 g/ha,[1]; [13],0%
same,pest or weed control at 250 g/ha,[1]; [14],5%
same,pest or weed control at 62 g/ha,[1]; [15],0%
same,pest or weed control at 125 g/ha,[1]; [15],0%
same,pest or weed control at 250 g/ha,"[1]; pre-emergence, Preemergence",0%
same,pest or weed control at 500 g/ha,[1]; [16],5%
same,pest or weed control at 62 g/ha,[2]; [17],0%
same,pest or weed control at 125 g/ha,[2]; [17],0%
same,pest or weed control at 250 g/ha,[2]; [14],0%
same,pest or weed control at 62 g/ha,[2]; [18],0%
same,pest or weed control at 125 g/ha,[2]; [18],0%
same,pest or weed control at 250 g/ha,"[2]; pre-emergence, Preemergence",0%
same,pest or weed control at 500 g/ha,[2]; [16],0%
same,pest or weed control at 62 g/ha,[3]; [19],0%
same,pest or weed control at 125 g/ha,[3]; [19],0%
same,pest or weed control at 250 g/ha,[3]; [14],0%
same,pest or weed control at 62 g/ha,[3]; [20],0%
same,pest or weed control at 125 g/ha,[3]; [20],0%
same,pest or weed control at 250 g/ha,"[3]; pre-emergence, Preemergence",0%
same,pest or weed control at 500 g/ha,[3]; [16],25%
same,pest or weed control at 62 g/ha,[4]; [21],0%
same,pest or weed control at 125 g/ha,[4]; [21],0%
same,pest or weed control at 250 g/ha,[4]; [14],20%
same,pest or weed control at 62 g/ha,[4]; [22],5%
same,pest or weed control at 125 g/ha,[4]; [22],15%
same,pest or weed control at 250 g/ha,"[4]; pre-emergence, Preemergence",15%
same,pest or weed control at 500 g/ha,[4]; [16],40%
same,pest or weed control at 31 g/ha,"[5]; post-emergence, Postemergence, 31 g ai/ha, read-out: Plant response rating (0 to 100), Crabgrass, Large",0%
same,pest or weed control at 62 g/ha,[5]; [23],0%
same,pest or weed control at 125 g/ha,[5]; [23],0%
same,pest or weed control at 250 g/ha,[5]; [14],0%
same,pest or weed control at 62 g/ha,[5]; [24],0%
same,pest or weed control at 125 g/ha,[5]; [24],0%
same,pest or weed control at 250 g/ha,"[5]; pre-emergence, Preemergence",0%
same,pest or weed control at 500 g/ha,[5]; [16],30%
same,"Wheat plant response rating (0 = no effect, 100 = complete control)","[6]; Preemergence, 125 g ai/ha",0
same,plant injury at 125 g/ha,"[6]; Triticum aestivum, post-emergence, 240 h, Postemergence, 125 g ai/ha, read-out: Plant response rating (0 to 100 scale), Wheat",0%
same,plant injury at 500 g/ha,"[6]; Triticum aestivum, post-emergence, 240 h, Postemergence, read-out: Plant response rating (0 to 100 scale), Wheat",0%
same,plant injury at 500 g/ha,"[6]; Triticum aestivum, pre-emergence, 240 h, Preemergence, read-out: Plant response rating (0 to 100 scale), Wheat",0%
same,"Corn plant response rating (0 = no effect, 100 = complete control)","corn (Zea mays); Preemergence, 125 g ai/ha",0
same,plant injury at 125 g/ha,"corn (Zea mays); Zea mays, post-emergence, 240 h, Postemergence, 125 g ai/ha, read-out: Plant response rating (0 to 100 scale), Corn",0%
same,plant injury at 500 g/ha,"corn (Zea mays); Zea mays, post-emergence, 240 h, Postemergence, read-out: Plant response rating (0 to 100 scale), Corn",0%
same,plant injury at 500 g/ha,"corn (Zea mays); Zea mays, pre-emergence, 240 h, Preemergence, read-out: Plant response rating (0 to 100 scale), Corn",0%
same,pest or weed control at 125 g/ha,"[7]; Echinochloa crus-galli, post-emergence, 240 h, Postemergence, 125 g ai/ha, read-out: Plant response rating (0 to 100 scale), Barnyardgrass",0%
same,pest or weed control at 500 g/ha,"[7]; Echinochloa crus-galli, post-emergence, 240 h, Postemergence, read-out: Plant response rating (0 to 100 scale), Barnyardgrass",0%
same,pest or weed control at 500 g/ha,"[7]; Echinochloa crus-galli, pre-emergence, 240 h, Preemergence, read-out: Plant response rating (0 to 100 scale), Barnyardgrass",0%
same,"Barnyardgrass plant response rating (0 = no effect, 100 = complete control)","[7]; Preemergence, 125 g ai/ha",0
same,pest or weed control at 125 g/ha,"[8]; Abutilon theophrasti, post-emergence, 240 h, Postemergence, 125 g ai/ha, read-out: Plant response rating (0 to 100 scale), Velvetleaf",90%
same,pest or weed control at 500 g/ha,"[8]; Abutilon theophrasti, post-emergence, 240 h, Postemergence, read-out: Plant response rating (0 to 100 scale), Velvetleaf",100%
same,pest or weed control at 500 g/ha,"[8]; Abutilon theophrasti, pre-emergence, 240 h, Preemergence, read-out: Plant response rating (0 to 100 scale), Velvetleaf",60%
same,"Velvetleaf plant response rating (0 = no effect, 100 = complete control)","[8]; Preemergence, 125 g ai/ha",30
same,pest or weed control at 125 g/ha,"[9]; Amaranthus retroflexus, post-emergence, 240 h, Postemergence, 125 g ai/ha, read-out: Plant response rating (0 to 100 scale), Pigweed",90%
same,pest or weed control at 500 g/ha,"[9]; Amaranthus retroflexus, post-emergence, 240 h, Postemergence, read-out: Plant response rating (0 to 100 scale), Pigweed",100%
same,pest or weed control at 500 g/ha,"[9]; Amaranthus retroflexus, pre-emergence, 240 h, Preemergence, read-out: Plant response rating (0 to 100 scale), Pigweed",90%
same,"Pigweed plant response rating (0 = no effect, 100 = complete control)","[9]; Preemergence, 125 g ai/ha",50
same,pest or weed control at 125 g/ha,"[10]; Digitaria sanguinalis, post-emergence, 240 h, Postemergence, 125 g ai/ha, read-out: Plant response rating (0 to 100 scale), Crabgrass, Large",0%
same,pest or weed control at 500 g/ha,"[10]; Digitaria sanguinalis, post-emergence, 240 h, Postemergence, read-out: Plant response rating (0 to 100 scale), Crabgrass, Large",0%
same,pest or weed control at 500 g/ha,"[10]; Digitaria sanguinalis, pre-emergence, 240 h, Preemergence, read-out: Plant response rating (0 to 100 scale), Crabgrass, Large",0%
same,"Crabgrass, Large plant response rating (0 = no effect, 100 = complete control)","[10]; Preemergence, 125 g ai/ha",0
same,pest or weed control at 125 g/ha,"[11]; Ipomoea, post-emergence, 240 h, Postemergence, 125 g ai/ha, read-out: Plant response rating (0 to 100 scale), Morningglory",0%
same,pest or weed control at 500 g/ha,"[11]; Ipomoea, post-emergence, 240 h, Postemergence, read-out: Plant response rating (0 to 100 scale), Morningglory",0%
same,pest or weed control at 500 g/ha,"[11]; Ipomoea, pre-emergence, 240 h, Preemergence, read-out: Plant response rating (0 to 100 scale), Morningglory",0%
same,"Morningglory plant response rating (0 = no effect, 100 = complete control)","[11]; Preemergence, 125 g ai/ha",0
same,"Foxtail, Giant plant response rating (0 = no effect, 100 = complete control)","[12]; Preemergence, 125 g ai/ha",0
same,pest or weed control at 125 g/ha,"[12]; Setaria faberi, post-emergence, 240 h, Postemergence, 125 g ai/ha, read-out: Plant response rating (0 to 100 scale), Foxtail, Giant",0%
same,pest or weed control at 500 g/ha,"[12]; Setaria faberi, post-emergence, 240 h, Postemergence, read-out: Plant response rating (0 to 100 scale), Foxtail, Giant",0%
same,pest or weed control at 500 g/ha,"[12]; Setaria faberi, pre-emergence, 240 h, Preemergence, read-out: Plant response rating (0 to 100 scale), Foxtail, Giant",0%
